Test [1] deals with T1, G protein-coupled receptor kinase 6 (Homo sapiens, UniProt P43250). Kind of test: Inhibition of recombinant full-length human GRK6 using casein as substrate at 1 uM measured after 80 mins in presence of [gamma33P]ATP by radiometric scintillation counting method relative to control.
Target sequence in this assay (P43250 whole entry, looked up): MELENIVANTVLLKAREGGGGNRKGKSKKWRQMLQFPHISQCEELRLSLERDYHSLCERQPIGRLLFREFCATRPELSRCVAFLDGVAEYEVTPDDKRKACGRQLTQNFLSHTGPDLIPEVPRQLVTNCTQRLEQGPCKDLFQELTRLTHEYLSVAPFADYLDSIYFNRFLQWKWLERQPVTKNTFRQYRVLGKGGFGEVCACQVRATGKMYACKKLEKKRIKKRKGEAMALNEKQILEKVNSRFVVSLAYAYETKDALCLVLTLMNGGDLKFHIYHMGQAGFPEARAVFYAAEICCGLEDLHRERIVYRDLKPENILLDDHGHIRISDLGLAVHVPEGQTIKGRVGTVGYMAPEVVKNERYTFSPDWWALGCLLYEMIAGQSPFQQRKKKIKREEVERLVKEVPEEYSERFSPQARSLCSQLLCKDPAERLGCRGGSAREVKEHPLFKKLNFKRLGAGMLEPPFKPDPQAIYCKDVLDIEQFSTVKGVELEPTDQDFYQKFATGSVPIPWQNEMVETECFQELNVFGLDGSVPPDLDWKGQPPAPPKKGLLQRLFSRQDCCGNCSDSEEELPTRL
Test [2] addresses T1, G protein-coupled receptor kinase 6. Kind of test: Inhibition of recombinant full-length human GRK6 using casein as substrate measured after 80 mins in presence of [gamma33P]ATP by radiometric scintillation counting method.
Target sequence in this assay (P43250 whole entry): as the sequence (P43250 whole entry, looked up) above
A further test deals with T2, Aurora kinase A (Homo sapiens, UniProt O14965).
T2 sequence (O14965 whole entry): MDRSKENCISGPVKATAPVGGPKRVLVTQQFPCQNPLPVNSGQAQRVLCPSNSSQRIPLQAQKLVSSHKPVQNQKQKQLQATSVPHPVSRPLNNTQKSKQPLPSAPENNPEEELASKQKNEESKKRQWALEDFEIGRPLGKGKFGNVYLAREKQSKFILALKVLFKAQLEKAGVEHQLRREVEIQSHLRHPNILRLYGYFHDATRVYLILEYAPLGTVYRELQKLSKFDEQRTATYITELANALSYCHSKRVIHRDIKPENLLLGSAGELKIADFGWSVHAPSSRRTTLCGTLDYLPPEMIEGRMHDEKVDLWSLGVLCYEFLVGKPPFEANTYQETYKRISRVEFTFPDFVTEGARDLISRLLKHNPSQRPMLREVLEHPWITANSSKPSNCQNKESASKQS
As to the kind of experiment: Inhibition of recombinant full length human Aurora A using LRRASLG as substrate incubated for 40 mins in presence of [gamma-33ATP] by radiometric scintillation counting method.

The next test has as its target T3, Rhodopsin kinase GRK1 (Homo sapiens, UniProt Q15835).
T3 sequence (Q15835 whole entry): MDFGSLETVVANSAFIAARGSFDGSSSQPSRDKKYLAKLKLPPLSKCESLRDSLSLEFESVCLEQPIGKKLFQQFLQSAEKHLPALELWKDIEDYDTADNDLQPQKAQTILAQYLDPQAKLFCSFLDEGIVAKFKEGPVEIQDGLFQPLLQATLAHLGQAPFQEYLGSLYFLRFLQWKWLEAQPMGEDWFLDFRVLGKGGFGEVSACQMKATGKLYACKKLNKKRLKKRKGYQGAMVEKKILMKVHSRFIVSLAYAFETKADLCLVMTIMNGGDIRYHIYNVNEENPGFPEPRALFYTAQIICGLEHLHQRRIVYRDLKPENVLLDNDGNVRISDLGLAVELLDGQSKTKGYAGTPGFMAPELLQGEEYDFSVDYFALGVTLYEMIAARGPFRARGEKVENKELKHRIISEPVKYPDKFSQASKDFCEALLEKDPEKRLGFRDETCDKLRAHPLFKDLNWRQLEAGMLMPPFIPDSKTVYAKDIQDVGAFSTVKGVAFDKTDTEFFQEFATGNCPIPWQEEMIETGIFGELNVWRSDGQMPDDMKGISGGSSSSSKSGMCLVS
As to the kind of experiment: Inhibition of human GRK1 using casein as substrate in presence of [gamma33P]ATP by radiometric hotspot kinase assay.

The target of test [3] is T4, Beta-adrenergic receptor kinase 1 (Homo sapiens, UniProt P25098).
T4 sequence (P25098 whole entry): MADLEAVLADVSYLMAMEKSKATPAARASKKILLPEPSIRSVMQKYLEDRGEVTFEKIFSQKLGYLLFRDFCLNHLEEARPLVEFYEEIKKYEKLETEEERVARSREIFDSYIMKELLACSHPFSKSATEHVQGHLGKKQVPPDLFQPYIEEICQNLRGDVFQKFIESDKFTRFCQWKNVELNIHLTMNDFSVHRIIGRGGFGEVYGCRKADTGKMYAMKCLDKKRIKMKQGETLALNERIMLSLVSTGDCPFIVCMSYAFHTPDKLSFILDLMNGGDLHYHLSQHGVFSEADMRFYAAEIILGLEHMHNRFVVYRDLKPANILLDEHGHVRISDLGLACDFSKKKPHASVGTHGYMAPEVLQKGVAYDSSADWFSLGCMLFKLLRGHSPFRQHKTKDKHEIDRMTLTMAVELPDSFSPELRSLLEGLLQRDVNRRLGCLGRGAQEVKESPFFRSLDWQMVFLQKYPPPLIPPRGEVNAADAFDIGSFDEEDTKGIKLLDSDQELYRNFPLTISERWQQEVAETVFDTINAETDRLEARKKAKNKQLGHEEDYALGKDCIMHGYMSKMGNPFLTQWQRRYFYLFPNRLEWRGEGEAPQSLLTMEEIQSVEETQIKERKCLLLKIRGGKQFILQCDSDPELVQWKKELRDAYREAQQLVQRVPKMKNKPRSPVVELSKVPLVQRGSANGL
As to the kind of experiment: Inhibition of human GRK2 using casein as substrate in presence of [gamma33P]ATP by radiometric hotspot kinase assay.

Test [4] concerns the target T5, G protein-coupled receptor kinase 3 (Homo sapiens, UniProt P35626).
T5 sequence (P35626 whole entry): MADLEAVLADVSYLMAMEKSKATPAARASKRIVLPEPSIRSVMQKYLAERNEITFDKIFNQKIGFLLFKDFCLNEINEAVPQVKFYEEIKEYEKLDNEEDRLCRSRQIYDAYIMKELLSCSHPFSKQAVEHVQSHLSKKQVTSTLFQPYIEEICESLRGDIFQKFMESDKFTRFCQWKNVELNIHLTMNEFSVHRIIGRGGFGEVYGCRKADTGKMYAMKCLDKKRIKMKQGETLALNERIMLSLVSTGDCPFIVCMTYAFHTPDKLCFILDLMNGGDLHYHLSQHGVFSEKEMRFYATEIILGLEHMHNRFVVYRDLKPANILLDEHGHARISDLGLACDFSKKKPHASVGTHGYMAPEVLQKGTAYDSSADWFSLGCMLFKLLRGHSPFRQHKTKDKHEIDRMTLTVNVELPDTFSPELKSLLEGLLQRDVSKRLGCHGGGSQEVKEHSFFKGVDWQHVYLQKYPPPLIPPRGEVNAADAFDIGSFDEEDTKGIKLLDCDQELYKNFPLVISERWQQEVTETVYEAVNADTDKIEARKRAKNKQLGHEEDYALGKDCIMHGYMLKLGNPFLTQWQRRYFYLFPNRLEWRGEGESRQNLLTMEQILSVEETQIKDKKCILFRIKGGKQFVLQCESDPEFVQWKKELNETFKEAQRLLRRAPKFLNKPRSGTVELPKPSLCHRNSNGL
Kind of test: Inhibition of human GRK3 using casein as substrate in presence of [gamma33P]ATP by radiometric hotspot kinase assay.

Test [5] addresses G protein-coupled receptor kinase 4 (Homo sapiens, UniProt P32298). Kind of test: Inhibition of human GRK4 using casein as substrate in presence of [gamma33P]ATP by radiometric hotspot kinase assay.
Test [6] has as its target T1, G protein-coupled receptor kinase 6. As to the kind of experiment: Inhibition of human GRK6 using casein as substrate in presence of [gamma33P]ATP by radiometric hotspot kinase assay.
Target sequence in this assay (P43250 whole entry): as the sequence (P43250 whole entry, looked up) above
A further test deals with T6, Rhodopsin kinase GRK7 (Homo sapiens, UniProt Q8WTQ7).
T6 sequence (Q8WTQ7 whole entry): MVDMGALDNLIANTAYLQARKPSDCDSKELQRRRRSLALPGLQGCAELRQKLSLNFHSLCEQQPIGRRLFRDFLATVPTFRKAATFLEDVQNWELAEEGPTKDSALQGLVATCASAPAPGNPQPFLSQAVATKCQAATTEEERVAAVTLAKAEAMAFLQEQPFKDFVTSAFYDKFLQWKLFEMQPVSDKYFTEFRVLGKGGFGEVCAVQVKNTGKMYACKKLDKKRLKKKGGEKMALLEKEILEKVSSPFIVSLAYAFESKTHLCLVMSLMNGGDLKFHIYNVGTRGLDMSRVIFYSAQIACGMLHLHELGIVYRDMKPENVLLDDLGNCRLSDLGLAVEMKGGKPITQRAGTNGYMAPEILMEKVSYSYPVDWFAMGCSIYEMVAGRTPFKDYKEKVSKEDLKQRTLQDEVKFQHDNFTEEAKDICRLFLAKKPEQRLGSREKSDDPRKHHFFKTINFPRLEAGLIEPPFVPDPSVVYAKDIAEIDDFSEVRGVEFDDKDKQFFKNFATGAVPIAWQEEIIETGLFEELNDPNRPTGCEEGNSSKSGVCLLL
Kind of test: Inhibition of recombinant full length human GRK7 using casein as substrate incubated for 40 mins in presence of [gamma-33ATP] by scintillation counting based radiometry assay.

Test [7] has as its target T1, G protein-coupled receptor kinase 6. Kind of test: Binding affinity to FLAG-tagged GRK6 in human KMS11 cells incubated for […] by ITDR assay. It counts as cell-based, KMS-11.
Target sequence in this assay (P43250 whole entry): as the sequence (P43250 whole entry, looked up) above
Test [8] addresses Insulin-like growth factor 1 receptor (Homo sapiens, UniProt P08069). As to the kind of experiment: Inhibition of recombinant human IGF-1R (959 to end residues) using KKKSPGEYVNIEF as substrate incubated for 40 mins in presence of [gamma-33ATP] by radiometric scintillation counting method.

pIC50: −log10 of the molar value. Bounds are passed on as bounds.

Chain of G protein-coupled receptor kinase 4 (P32298 whole entry): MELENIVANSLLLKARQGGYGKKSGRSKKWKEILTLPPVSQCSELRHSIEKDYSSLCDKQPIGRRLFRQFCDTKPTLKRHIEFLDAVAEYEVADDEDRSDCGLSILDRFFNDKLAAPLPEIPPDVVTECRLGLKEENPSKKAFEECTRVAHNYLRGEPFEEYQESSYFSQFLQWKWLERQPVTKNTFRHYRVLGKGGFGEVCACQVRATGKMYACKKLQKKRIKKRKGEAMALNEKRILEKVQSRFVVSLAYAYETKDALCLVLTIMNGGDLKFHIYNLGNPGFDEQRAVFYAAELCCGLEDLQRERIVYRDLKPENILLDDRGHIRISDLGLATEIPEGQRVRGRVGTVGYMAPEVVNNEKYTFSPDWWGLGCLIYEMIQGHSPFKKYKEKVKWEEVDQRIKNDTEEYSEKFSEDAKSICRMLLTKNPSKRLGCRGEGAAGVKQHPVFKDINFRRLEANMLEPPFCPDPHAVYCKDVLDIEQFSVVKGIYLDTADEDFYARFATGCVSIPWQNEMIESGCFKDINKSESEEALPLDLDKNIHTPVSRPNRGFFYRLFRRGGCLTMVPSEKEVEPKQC
Chain of Insulin-like growth factor 1 receptor (P08069 31-736 limits assumed): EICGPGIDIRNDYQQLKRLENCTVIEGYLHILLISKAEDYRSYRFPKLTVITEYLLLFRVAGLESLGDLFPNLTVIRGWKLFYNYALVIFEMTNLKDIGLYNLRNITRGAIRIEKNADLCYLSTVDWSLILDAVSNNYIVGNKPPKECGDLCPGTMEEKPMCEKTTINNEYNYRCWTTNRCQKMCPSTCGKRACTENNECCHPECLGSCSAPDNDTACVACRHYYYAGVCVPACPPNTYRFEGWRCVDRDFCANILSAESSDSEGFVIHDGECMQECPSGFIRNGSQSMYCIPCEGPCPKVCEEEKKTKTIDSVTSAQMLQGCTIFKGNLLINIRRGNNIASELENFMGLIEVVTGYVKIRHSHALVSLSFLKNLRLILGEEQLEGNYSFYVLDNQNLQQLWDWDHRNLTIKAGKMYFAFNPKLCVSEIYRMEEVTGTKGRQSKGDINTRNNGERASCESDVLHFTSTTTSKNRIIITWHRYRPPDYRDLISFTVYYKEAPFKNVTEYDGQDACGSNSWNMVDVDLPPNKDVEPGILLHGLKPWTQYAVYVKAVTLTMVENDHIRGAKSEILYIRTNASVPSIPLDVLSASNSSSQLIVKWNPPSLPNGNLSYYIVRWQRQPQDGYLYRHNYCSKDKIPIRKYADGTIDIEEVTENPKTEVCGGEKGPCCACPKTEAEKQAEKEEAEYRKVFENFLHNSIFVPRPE
Chain of Insulin-like growth factor 1 receptor (P08069 741-1367 limits assumed): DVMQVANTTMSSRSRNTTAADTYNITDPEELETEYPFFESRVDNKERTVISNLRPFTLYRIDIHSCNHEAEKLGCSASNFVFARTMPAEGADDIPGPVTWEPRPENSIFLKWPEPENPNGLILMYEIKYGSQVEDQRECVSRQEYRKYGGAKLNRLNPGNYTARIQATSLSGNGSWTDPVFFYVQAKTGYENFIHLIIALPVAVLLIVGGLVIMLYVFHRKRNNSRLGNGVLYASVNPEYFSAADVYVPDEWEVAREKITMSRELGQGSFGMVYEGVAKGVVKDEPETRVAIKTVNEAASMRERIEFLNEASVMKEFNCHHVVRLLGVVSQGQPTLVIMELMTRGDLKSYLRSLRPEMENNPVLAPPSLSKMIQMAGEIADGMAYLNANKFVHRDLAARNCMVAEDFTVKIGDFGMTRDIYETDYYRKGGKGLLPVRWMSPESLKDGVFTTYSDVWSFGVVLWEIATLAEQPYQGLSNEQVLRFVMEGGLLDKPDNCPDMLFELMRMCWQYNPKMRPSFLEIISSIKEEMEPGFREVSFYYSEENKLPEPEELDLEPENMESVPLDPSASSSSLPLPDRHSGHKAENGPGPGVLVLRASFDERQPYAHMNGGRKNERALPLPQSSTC

`Cc1cc(Nc2nc(N[C@@H](C)c3ccc(F)cc3)c(C#N)cc2F)n[nH]1`: in test [1], the inhibition came out at 79%.

Turning to `CCc1cc(Nc2nc(N[C@@H](C)c3ccc(F)cn3)nc3cccc(OC)c23)n[nH]1`, the pIC50 in test [2] is 8.14; on Aurora kinase A, 6.07; on Rhodopsin kinase GRK1 it was 6.72; in test [3] it was less than 5.00; in test [4], less than 5.00; in test [5], 7.01. In addition, the pIC50 in [6] was 7.74; on Rhodopsin kinase GRK7 it was 7.82; in test [7] it was 5.70.

For the molecule `CCc1cc(Nc2nc(NCc3ccc(F)cn3)nc3cccc(OC)c23)n[nH]1`, the pIC50 is 7.74 in [2]; 5.34 on Aurora kinase A; less than 5.00 in test [8]; 6.35 on Rhodopsin kinase GRK1; less than 5.00 in test [3]; less than 5.00 in test [4]. For the same molecule, the pIC50 in test [5] is 6.72; in test [6], 7.48; at Rhodopsin kinase GRK7, 7.44; in [7], 5.00.

As to `N#CCc1ccc(Nc2nc(Nc3cc(C4CCC4)[nH]n3)c3ccccc3n2)cc1`, the inhibition in test [1] was found to be 95%.

As usually defined, the inhibition is the share of the control response that was lost under treatment. For orientation: pIC50 means −log10 of the IC50, conventionally taken in molar units.

For the origin of these results see ChEMBL document CHEMBL4808217, “Design, Synthesis, and Characterization of 4-Aminoquinazolines as Potent Inhibitors of the G Protein-Coupled Receptor Kinase 6 (GRK6) for the Treatment of Multiple Myeloma” (J Med Chem, 2021).
